Paper PMC12621043, “Un-LOK-ing a New Approach for Conformational Selective Targeting of STK10 (LOK)” (ACS Medicinal Chemistry Letters, 2025)

Tests used:
[1] = biological target: T1, FLT1A (Homo sapiens, UniProt P17948); experiment: DSF Tm panel; type: binding; conditions: 10 μM compound
T1 construct: purchased in-house DSF kinase panel (SGC-style construct names; the trailing letter is the construct ID)
T1 sequence (P17948 801-1158): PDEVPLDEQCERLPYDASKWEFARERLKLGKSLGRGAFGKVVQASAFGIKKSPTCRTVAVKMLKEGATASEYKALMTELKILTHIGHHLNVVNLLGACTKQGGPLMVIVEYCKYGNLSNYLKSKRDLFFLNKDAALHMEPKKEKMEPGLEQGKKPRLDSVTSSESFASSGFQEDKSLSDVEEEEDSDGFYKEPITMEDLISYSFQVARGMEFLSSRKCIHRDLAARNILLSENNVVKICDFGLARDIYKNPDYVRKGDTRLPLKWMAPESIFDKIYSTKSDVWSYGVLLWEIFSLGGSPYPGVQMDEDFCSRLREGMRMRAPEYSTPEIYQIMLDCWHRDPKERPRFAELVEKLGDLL

[2] = biological target: T2, FGFR3A (Homo sapiens, UniProt P22607); experiment: DSF Tm panel; type: binding; conditions: 10 μM compound
T2 construct: purchased in-house DSF kinase panel (SGC-style construct names; the trailing letter is the construct ID)
T2 sequence (P22607 472-761): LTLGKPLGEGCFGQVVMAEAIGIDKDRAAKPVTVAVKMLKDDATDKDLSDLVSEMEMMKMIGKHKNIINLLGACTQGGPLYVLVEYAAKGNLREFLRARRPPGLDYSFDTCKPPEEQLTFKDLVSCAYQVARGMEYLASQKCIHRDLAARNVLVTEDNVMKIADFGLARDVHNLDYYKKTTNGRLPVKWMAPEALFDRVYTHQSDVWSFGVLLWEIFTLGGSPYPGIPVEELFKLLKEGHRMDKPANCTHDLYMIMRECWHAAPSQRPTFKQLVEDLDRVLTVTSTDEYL

[3] = biological target: T3, CAMK1GA (Homo sapiens, UniProt Q96NX5); experiment: DSF Tm panel; type: binding; conditions: 10 μM compound
T3 construct: purchased in-house DSF kinase panel (SGC-style construct names; the trailing letter is the construct ID)
T3 sequence (Q96NX5 18-316): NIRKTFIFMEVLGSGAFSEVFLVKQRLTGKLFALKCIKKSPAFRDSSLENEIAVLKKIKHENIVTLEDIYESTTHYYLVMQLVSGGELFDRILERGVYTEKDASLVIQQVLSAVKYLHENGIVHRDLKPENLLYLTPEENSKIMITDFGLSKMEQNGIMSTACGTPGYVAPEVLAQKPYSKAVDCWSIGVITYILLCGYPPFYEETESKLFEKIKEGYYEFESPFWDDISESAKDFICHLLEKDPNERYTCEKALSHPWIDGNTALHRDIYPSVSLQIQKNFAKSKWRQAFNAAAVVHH

[4] = biological target: SLK (Homo sapiens, UniProt Q9H2G2); experiment: Surface plasmon resonance (SPR); type: binding; conditions: kinetic fit, Figure S3
[5] = biological target: T4, EPHA4A (Homo sapiens, UniProt P54764); experiment: DSF Tm panel; type: binding; conditions: 10 μM compound
T4 construct: purchased in-house DSF kinase panel (SGC-style construct names; the trailing letter is the construct ID)
T4 sequence (P54764 621-882): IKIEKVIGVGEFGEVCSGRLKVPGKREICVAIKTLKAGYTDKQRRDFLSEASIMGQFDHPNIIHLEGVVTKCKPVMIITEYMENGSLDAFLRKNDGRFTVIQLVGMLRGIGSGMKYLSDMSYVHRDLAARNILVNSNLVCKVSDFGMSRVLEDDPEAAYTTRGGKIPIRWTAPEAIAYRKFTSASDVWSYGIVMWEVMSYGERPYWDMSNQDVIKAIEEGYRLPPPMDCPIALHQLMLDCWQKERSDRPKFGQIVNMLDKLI

[6] = biological target: T5, AURKBA (Homo sapiens, UniProt Q96GD4); experiment: DSF Tm panel; type: binding; conditions: 10 μM compound
T5 construct: purchased in-house DSF kinase panel (SGC-style construct names; the trailing letter is the construct ID)
T5 sequence (Q96GD4 whole entry): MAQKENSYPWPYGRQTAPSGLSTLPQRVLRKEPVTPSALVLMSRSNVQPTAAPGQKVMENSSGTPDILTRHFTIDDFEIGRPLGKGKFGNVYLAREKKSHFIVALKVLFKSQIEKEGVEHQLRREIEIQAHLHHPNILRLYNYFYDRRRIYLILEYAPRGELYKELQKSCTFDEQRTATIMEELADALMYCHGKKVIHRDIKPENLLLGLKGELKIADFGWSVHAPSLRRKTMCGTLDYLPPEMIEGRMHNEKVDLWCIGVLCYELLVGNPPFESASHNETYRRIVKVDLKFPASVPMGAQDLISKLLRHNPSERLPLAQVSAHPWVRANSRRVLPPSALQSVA

[7] = biological target: T6, NEK7A (Homo sapiens, UniProt Q8TDX7); experiment: DSF Tm panel; type: binding; conditions: 10 μM compound
T6 construct: purchased in-house DSF kinase panel (SGC-style construct names; the trailing letter is the construct ID)
T6 sequence (Q8TDX7 whole entry): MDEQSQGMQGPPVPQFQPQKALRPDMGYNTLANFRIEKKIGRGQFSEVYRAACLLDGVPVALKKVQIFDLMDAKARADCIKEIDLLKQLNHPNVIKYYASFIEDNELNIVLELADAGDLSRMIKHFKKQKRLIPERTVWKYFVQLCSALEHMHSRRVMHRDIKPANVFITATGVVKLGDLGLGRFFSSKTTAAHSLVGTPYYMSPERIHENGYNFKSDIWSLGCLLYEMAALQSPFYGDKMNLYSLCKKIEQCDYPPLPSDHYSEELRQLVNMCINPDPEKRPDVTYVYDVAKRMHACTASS

[8] = biological target: T7, NEK2A (Homo sapiens, UniProt P51955); experiment: DSF Tm panel; type: binding; conditions: 10 μM compound
T7 construct: purchased in-house DSF kinase panel (SGC-style construct names; the trailing letter is the construct ID)
T7 sequence (P51955 1-271): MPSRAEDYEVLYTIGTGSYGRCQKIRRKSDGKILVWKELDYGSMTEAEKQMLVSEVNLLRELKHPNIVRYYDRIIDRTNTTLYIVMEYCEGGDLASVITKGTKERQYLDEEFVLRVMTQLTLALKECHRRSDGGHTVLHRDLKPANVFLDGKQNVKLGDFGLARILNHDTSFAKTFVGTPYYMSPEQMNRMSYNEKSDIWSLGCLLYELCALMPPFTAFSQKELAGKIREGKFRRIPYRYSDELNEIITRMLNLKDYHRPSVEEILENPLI

[9] = biological target: T8, HIPK2HSF (Homo sapiens, UniProt Q9H2X6); experiment: DSF Tm panel; type: binding; conditions: 10 μM compound
T8 construct: purchased in-house DSF kinase panel (SGC-style construct names; the trailing letter is the construct ID)
T8 sequence (Q9H2X6 199-527): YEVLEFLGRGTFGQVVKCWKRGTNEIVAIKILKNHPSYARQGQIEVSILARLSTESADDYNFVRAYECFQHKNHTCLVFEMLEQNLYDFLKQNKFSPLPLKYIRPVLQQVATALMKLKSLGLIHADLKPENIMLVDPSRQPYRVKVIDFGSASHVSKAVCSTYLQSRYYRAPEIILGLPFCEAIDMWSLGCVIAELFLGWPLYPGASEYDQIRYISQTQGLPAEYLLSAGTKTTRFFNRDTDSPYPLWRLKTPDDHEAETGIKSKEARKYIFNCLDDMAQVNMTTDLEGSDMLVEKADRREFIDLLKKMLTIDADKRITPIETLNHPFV

[10] = biological target: T9, MSSK1A (Homo sapiens, UniProt Q9UPE1); experiment: DSF Tm panel; type: binding; conditions: 10 μM compound
T9 construct: purchased in-house DSF kinase panel (SGC-style construct names; the trailing letter is the construct ID)
T9 sequence (Q9UPE1 79-565): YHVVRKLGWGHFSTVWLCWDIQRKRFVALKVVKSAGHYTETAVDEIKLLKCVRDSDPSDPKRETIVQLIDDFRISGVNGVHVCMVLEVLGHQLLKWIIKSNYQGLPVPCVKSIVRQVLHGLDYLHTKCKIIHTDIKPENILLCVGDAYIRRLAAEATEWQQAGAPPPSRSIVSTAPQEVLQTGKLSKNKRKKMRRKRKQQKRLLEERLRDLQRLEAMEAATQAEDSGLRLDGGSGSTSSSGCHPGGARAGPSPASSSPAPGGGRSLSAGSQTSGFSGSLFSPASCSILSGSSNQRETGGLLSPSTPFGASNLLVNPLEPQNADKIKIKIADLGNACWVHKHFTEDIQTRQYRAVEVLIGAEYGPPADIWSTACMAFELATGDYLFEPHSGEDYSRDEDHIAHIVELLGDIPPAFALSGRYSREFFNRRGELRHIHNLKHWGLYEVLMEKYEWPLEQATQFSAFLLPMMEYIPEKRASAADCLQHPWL

[11] = biological target: T10, MAPK8B (Homo sapiens, UniProt P45983); experiment: DSF Tm panel; type: binding; conditions: 10 μM compound
T10 construct: purchased in-house DSF kinase panel (SGC-style construct names; the trailing letter is the construct ID)
T10 sequence (P45983 1-364): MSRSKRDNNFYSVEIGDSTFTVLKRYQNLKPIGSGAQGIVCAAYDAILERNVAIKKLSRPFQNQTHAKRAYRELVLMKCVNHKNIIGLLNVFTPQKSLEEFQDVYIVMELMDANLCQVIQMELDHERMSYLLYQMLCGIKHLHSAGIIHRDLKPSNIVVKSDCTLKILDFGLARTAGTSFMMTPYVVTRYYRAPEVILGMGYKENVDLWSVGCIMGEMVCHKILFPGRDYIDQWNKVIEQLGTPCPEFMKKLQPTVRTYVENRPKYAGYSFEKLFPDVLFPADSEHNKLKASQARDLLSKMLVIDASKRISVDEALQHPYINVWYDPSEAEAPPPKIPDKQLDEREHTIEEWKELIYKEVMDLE

[12] = tested on: RPS6KA5A; experiment: DSF Tm panel; type: binding; conditions: 10 μM compound
Experimental: The synthesized urea-based derivatives were evaluated in a panel of kinases by differential scanning fluorescence (DSF) to investigate their selectivity profile. A positive ΔT m in the DSF assay indicates stabilization of the protein upon ligand binding in comparison to its apo state, with higher thermal shifts generally correlating with stronger binding. For this purpose, we used our internal kinase selectivity panel (∼90 kinases) along with staurosporine as a positive control. […]
was performed as previously described.[1,2] Briefly, recombinant protein kinase domains at a concentration of 2 μM were mixed with 10 μM compound in a buffer containing 20 mM HEPES, […]
probe (1 µl per mL). Subsequently, temperature-dependent protein unfolding profiles were […]
The temperature was raised with a step rate of 3 °C per minute. […]
inflection point of the transition curve. […]
previously.[3] In brief, STK10, STK3, STK4 and SLK were obtained as plasmids cloned in […]
Plasmids were transfected into
KD concentration taken from TracerDB (tracerdb.org)[4] were pipetted into white 384-well

[13] = biological target: T11, FECHHSB (Homo sapiens, UniProt P22830); experiment: DSF Tm panel; type: binding; conditions: 10 μM compound
T11 construct: purchased in-house DSF kinase panel (SGC-style construct names; the trailing letter is the construct ID)
T11 sequence (P22830 55-423): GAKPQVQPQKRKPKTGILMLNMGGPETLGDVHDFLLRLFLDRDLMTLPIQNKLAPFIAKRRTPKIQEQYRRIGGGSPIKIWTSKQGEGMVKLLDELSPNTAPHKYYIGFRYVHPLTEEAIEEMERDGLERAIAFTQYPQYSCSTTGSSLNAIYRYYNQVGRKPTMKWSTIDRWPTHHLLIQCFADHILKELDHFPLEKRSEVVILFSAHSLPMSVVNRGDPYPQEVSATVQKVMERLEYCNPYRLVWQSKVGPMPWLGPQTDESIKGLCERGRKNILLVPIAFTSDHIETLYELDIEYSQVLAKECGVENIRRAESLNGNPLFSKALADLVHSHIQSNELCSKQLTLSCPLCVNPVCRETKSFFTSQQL

[14] = tested on: SLK; design: method as in Serafim et al.; conditions: Figure 1, previous published dual STK10/SLK inhibitors, ref Serafim et al.; read-out: SLK cellular IC50; cited from earlier work

Structure (SMILES)	ΔTm at 10 µM [1] [°C]	ΔTm at 10 µM [2] [°C]	ΔTm at 10 µM [3] [°C]	Kd [4] [nM]	Kd SLK (SPR) [4]	ΔTm at 10 µM [5] [°C]	ΔTm at 10 µM [6] [°C]	ΔTm at 10 µM [7] [°C]	ΔTm at 10 µM [8] [°C]	ΔTm at 10 µM [9] [°C]	ΔTm at 10 µM [10] [°C]	ΔTm at 10 µM [11] [°C]	ΔTm RPS6KA5A [12]	ΔTm at 10 µM [13] [°C]	IC50 [14] [nM]
O=C(NCc1ccccc1)Nc1ccc2cc1OCCOCCNc1ccn3ncc-2c3n1 [compound 16]	4.7	5	-0.3												
O=C(NCc1ccccc1Cl)Nc1ccc2cc1OCCOCCNc1ccn3ncc-2c3n1 [compound 17]	2.1	2.1	0.9												
O=C(NCc1cccc(Cl)c1)Nc1ccc2cc1OCCOCCNc1ccn3ncc-2c3n1 [compound 18]	3.7	3.6	0.8												
O=C(NCc1ccc(Cl)cc1)Nc1ccc2cc1OCCOCCNc1ccn3ncc-2c3n1 [compound 19]	3.4	1.7	0.9												
O=C(NCc1ccc(Cl)cc1Cl)Nc1ccc2cc1OCCOCCNc1ccn3ncc-2c3n1 [compound 20]	1.4	1.4	2.7												
O=C(NCc1ccc(Cl)cc1F)Nc1ccc2cc1OCCOCCNc1ccn3ncc-2c3n1 [compound 21]	2.6	1.6	2												
Cc1cc(Cl)ccc1CNC(=O)Nc1ccc2cc1OCCOCCNc1ccn3ncc-2c3n1 [compound 23]	2	2.5	2	985 ± 855	mainly nonspecific binding										
Cc1cc(Br)ccc1CNC(=O)Nc1ccc2cc1OCCOCCNc1ccn3ncc-2c3n1 [compound 24]						0.2	7.7	1.6	-1.3	0.2	0.2	0.6	1,0 °C		
Cc1ccc(F)cc1CNC(=O)Nc1ccc2cc1OCCOCCNc1ccn3ncc-2c3n1 [compound 26]						0.3	7.8	0.9	-1.2	0.4	0.4	0.5	0,7 °C		
O=C(NCc1ccccc1C(F)(F)F)Nc1ccc2cc1OCCOCCNc1ccn3ncc-2c3n1 [compound 27]						0.3	8.6	2	-0.4	0.2	0.5	0.5	1,3 °C		
O=C(NCc1ccc(C(F)(F)F)cc1)Nc1ccc2cc1OCCOCCNc1ccn3ncc-2c3n1 [compound 28]						0.5	9	2.3	0.4	0.6	0.3	0.9	1,5 °C		
COc1ccccc1CNC(=O)Nc1ccc2cc1OCCOCCNc1ccn3ncc-2c3n1 [compound 29]						0.3	6.6	1.7	-0.3	0.5	0.5	1.1	0,2 °C	-3.1	
COc1cccc(CNC(=O)Nc2ccc3cc2OCCOCCNc2ccn4ncc-3c4n2)c1 [compound 30]						0.3	7.3	1	-0.5	0.4	0.4	1.2	0,3 °C	-3.8	
COc1ccc(CNC(=O)Nc2ccc3cc2OCCOCCNc2ccn4ncc-3c4n2)cc1 [compound 31]						0.4	7.6	0.6	-1.3	0.5	0.7	1.1			700
COc1ccc(CNC(=O)Nc2ccc3cc2OCCOCCNc2ccn4ncc-3c4n2)cc1F [compound 32]						0.4	7.9	1.3	-1.3	0.5	0.4	0.8	1,1 °C		
COc1cc(CNC(=O)Nc2ccc3cc2OCCOCCNc2ccn4ncc-3c4n2)ccc1F [compound 33]						0.4	9.1	1.4	-1.3	0.5	0.4	0.9	0,7 °C		
C[C@H](NC(=O)Nc1ccc2cc1OCCOCCNc1ccn3ncc-2c3n1)c1ccccc1 [compound 34]						0.3	7.1	0.9	-1.3	0.4	0.4	0.9	0,6 °C		
CN1CCN(C(=O)Nc2ccc3cc2OCCOCCNc2ccn4ncc-3c4n2)CC1 [compound 35]	4.4	3	0												
